Numbers after ± are expanded uncertainties.
Conditions: 298.15 K; 101.33 kPa; Liquid; Vibrating tube method

Row | SMILES | mass density [kg/m3]
1 | C1CCCCC1 [cyclohexane] | 774 ± 0.5
2 | CO [methanol] | 787 ± 0.5
3 | CC(C)O [propan-2-ol] | 781.4 ± 0.5
4 | OCC(F)(F)F [2,2,2-trifluoroethanol] | 1382.4 ± 0.6
5 | CCCCCCC [heptane] | 680 ± 0.5

Reference: the NIST ThermoML archive (doi:10.1021/je8001688)
